Six compounds from ChEMBL document CHEMBL1126994, “Synthesis of myristic acid analogs with anti-HIV activity that may be resistant to metabolic processing by -oxidation” (1993) can be followed below.

The species entered for one experiment is Homo sapiens. Nature of the experiment: Tested in vitro for the production of acyl-CoA of compound by Acyl-CoA synthetase in human.
Experiment [1] has as its target T1, Glycylpeptide N-tetradecanoyltransferase 1 (Homo sapiens) (UniProt P30419).
T1 sequence (whole entry): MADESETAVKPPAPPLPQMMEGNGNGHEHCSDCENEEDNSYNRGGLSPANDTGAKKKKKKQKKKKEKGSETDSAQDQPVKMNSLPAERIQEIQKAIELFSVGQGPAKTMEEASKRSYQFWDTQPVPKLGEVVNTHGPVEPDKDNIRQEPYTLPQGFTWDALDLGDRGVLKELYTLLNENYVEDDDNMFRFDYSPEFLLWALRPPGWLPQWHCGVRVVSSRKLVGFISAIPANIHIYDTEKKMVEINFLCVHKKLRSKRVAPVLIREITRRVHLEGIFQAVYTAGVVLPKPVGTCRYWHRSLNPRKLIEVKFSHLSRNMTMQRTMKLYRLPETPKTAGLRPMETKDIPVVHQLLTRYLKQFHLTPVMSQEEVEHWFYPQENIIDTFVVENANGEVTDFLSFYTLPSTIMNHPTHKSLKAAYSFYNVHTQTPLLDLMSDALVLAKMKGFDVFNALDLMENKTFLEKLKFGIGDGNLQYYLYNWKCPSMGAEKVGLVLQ
The experiment can be described thus: In vitro production of Acylpeptide by human N-myristoyltransferase (NMT) assay.

Experiment [2] has as its system CCRF-CEM. Nature of the experiment: Tested for cytotoxicity against HIV-1 uninfected CEM cells. The format is functional. The settings on record: Homo sapiens, read-out: TD50 (the source's name).
Experiment [3] relates to CCRF-CEM. The experiment can be described thus: Tested for the antiviral activity against HIV-1 infected CEM cells. The settings on record: Homo sapiens, read-out: ID50 (the source's name). The format is functional.
Experiment [4] has as its target Glycylpeptide N-tetradecanoyltransferase (Saccharomyces cerevisiae) (UniProt P14743). The experiment can be described thus: Tested in vitro for the production of Acylpeptide by yeast N-myristoyltransferase (NMT) assay.
Another experiment concerns Pseudomonas. The experiment can be described thus: Tested in vitro for the production of acyl-CoA by Acyl-CoA synthetase in Pseudomonas.
Experiment [5] relates to CCRF-CEM. Nature of the experiment: Tested for the antiviral activity against HIV-1 infected CEM cells; NA means not active. The settings on record: Homo sapiens. The format is functional, cell-based.
Experiment [6] concerns CCRF-CEM. Nature of the experiment: Tested for the antiviral activity against HIV-1 infected CEM cells; Value ranges from 1-5. The format is functional. The settings on record: Homo sapiens, read-out: ID50 (the source's name).
The test system of experiment [7] is CCRF-CEM. Nature of the experiment: Tested for cytotoxicity against HIV-1 uninfected CEM cells; Value ranges from 80-190. The format is functional. The settings on record: Homo sapiens, read-out: TD50 (the source's name).
Experiment [8] concerns CCRF-CEM. The experiment can be described thus: Tested for the antiviral activity against HIV-1 infected CEM cells; Value ranges from 9-20. The format is functional. The settings on record: Homo sapiens, read-out: ID50 (the source's name).

Activity calls are given as the source filed them. The rule behind the calls is not given here. Where only a bound is given, the exact number is not on record here.

Glycylpeptide N-tetradecanoyltransferase (Saccharomyces cerevisiae), sequence (P14743 whole entry, looked up): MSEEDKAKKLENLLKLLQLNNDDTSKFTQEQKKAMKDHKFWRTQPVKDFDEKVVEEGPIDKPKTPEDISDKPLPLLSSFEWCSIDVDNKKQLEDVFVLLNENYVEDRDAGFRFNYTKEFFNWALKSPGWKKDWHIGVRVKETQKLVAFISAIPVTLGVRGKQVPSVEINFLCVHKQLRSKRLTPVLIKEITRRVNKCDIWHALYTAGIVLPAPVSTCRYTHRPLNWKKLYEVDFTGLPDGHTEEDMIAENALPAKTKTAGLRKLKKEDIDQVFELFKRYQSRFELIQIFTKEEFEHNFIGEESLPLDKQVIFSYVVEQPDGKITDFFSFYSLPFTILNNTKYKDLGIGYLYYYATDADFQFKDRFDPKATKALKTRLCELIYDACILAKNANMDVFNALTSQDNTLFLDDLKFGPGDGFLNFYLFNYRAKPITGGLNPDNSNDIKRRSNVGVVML

Regarding `COCCCCCCCCC/C=C/C(=O)O`, the MyristoylCoA in the experiment listed under Homo sapiens was found to be 12%; in the experiment with Pseudomonas, 78%. Besides, the results for the Myristoylpeptide in experiment [1] and in experiment [4] were 5% and 7%, respectively. Moreover, in the experiment on CCRF-CEM [2], the CC50 was over 80 µM. Also, the IC50 in the experiment with CCRF-CEM [3] was 5 µM.

As to `COCCCCCCCCCCC(F)C(=O)O` (centres undefined), the MyristoylCoA in the experiment filed under Homo sapiens worked out at 26%; in the experiment with Pseudomonas, 14%. Moreover, the Myristoylpeptide was under 5% in experiment [1] and 14% in [4]. For the same compound, the CC50 with CCRF-CEM [2] was over 100 µM. In addition, the ID50 entry in the experiment on CCRF-CEM [5] was “inactive”.

`COCCCCCCCCC(O)CCC(=O)O` (centres undefined): the Myristoylpeptide was under 5% in experiment [1] and 107% in [4]. Also, the CC50 with CCRF-CEM [2] is over 400 µM. In the experiment with CCRF-CEM [3], the IC50 was determined as 77 µM.

As to `COCCCCCCCCCC(F)CC(=O)O` (centres undefined), the MyristoylCoA is under 5% in the experiment listed under Homo sapiens and 94% with Pseudomonas. Besides, the Myristoylpeptide was 5% in experiment [1] and under 5% in [4]. The CC50 in the experiment on CCRF-CEM [2] is 300 µM. Also, the IC50 with CCRF-CEM [6] came out at 1 µM.

With `COCCCCCCCCCCCCC(=O)O`, the results for the MyristoylCoA in the experiment filed under Homo sapiens and in the experiment with Pseudomonas were 75% and 175%, respectively. In addition, the CC50 with CCRF-CEM [7] is 80 µM. Also, the figures for the Myristoylpeptide in experiment [1] and in experiment [4] were 84% and 109%, respectively. The IC50 with CCRF-CEM [6] was determined as 1 µM.

In the case of `COCCCCCCCCCC(O)CC(=O)O` (centres undefined), the MyristoylCoA in the experiment filed under Homo sapiens is under 5%; with Pseudomonas, 114%. In addition, the Myristoylpeptide in experiment [1] and in [4] was under 5% in each case. The CC50 in the experiment with CCRF-CEM [2] was determined as 280 µM. Also, in the experiment with CCRF-CEM [8], the IC50 came out at 9 µM.
